# Laboratory results taken from patent US12622910B2, “Inhibitors of Bruton's tyrosine kinase and methods of their use” (Janssen Pharmaceutica NV, priority 2021, dated 2026).
# Like-named read-outs stand apart in the source and are kept apart here.
# Test: Phase 1 first-in-human study, plasma pharmacokinetics
# Format: in vivo
# Settings: for Tmax / Cmax / AUC(0-t) / half-life / AUC(0-inf): plasma
# Procedure: Safety, tolerability, PK, and BTKO were assessed for six doses of compound of Formula (III) oral solution (4, 12, 36, 100, 200, 400 mg) in participants under fasted conditions. The SAD part comprised 10 cohorts of 8 participants each (FIG. 1). In each cohort receiving compound of Formula (III) oral solution (Cohorts 1-9), 6 participants were randomized to receive compound of Formula (III) and 2 to receive placebo. All participants in Cohort 10 received compound of Formula (III) as an oral capsule. All 10 cohorts included 2 sentinel participants who were dosed ˜24 hours prior to the rest of the cohort. In cohorts receiving compound of Formula (III) oral solution, 1 sentinel participant received compound of Formula (III) and the other received placebo.
# Six male escalating dose cohorts received a single oral dose of 4, 12, 36, 100, 200, 400 mg compound of Formula (III) or placebo solution under fasted conditions. Gender effects were assessed in 2 female cohorts whose participants received either a 36 or 100 mg dose of compound of Formula (III) or placebo as an oral solution under fasted conditions. Food effects were evaluated in a male cohort receiving compound of Formula (III) 100 mg or placebo as an oral solution after a high-fat breakfast.
# Safety, tolerability, and PK of a solid dose formulation of compound of Formula (III) were assessed in an additional male cohort (Cohort 10) that received 3×35 mg (105 mg) of compound of Formula (III) in the fasted state. Since all the participants received the same dose of compound of Formula (III), this cohort was not blinded.
# Safety, tolerability, PK, and BTKO following multiple compound of Formula (III) doses were evaluated in 3 dose escalation cohorts with a total of 18 participants (males: 9, females: 9) receiving active study drug. In each cohort, 3 males and 3 females were randomized to receive 36 mg once-daily (QD), 100 mg QD, or 200 mg QD compound of Formula (III) oral solution and 3 participants (males: 2; female: 1) to receive placebo. Two male participants in each cohort served as sentinel participants: one received compound of Formula (III) and other received placebo ˜48 hours prior to other participants in the cohort. All safety and tolerability data (through the follow-up visit), PK data (through at least 24 hours after last dose administration), and all available PD data were reviewed from each cohort before a decision was made to dose escalate.
# Sample collection—For the PK assessment of compound of Formula (III), venous blood samples (2 to 4 mL each) were collected predose and at 15 min, 0.5, 1, 1.5, 2, 2.5, 3, 4, 6, 8, 12, 24, 36, 48, and 72 hours post-dose in Part 1. In Part 2, samples were collected predose and at 15 min, 0.5, 1, 1.5, 2, 2.5, 3, 4, 6, 8, 12 hours post-dose on day 1, predose and 1 hour post-dose on days 2-9, and predose and at 15 min, 0.5, 1, 1.5, 2, 2.5, 3, 4, 6, 8, 12, 24, 48, and 72 hours after the last dose on day 10. Plasma samples were analyzed to determine concentrations of compound of Formula (III) using a scientific validated, specific, and sensitive liquid chromatography-mass spectrometry (LC-MS/MS) method.
# The PK analysis for the compound of Formula (III) samples was performed using a non-compartmental method with validated Phoenix® WinNonlin® (version 8.0, Certara L.P.).
# [1] = 36 mg QD oral solution, fed, Day 10
# [2] = 100 mg QD oral solution, fed, Day 10
# [3] = 200 mg QD oral solution, fed, Day 10
# [4] = female, human, po, 36 mg, single 36 mg oral solution, female fasted
# [5] = female, human, po, 100 mg, single 100 mg oral solution, female fasted
# [6] = male, human, po, 4 mg, single 4 mg oral solution, male fasted
# [7] = male, human, po, 12 mg, single 12 mg oral solution, male fasted
smiles,measurement,setting,value
"C=CC(=O)N[C@H]1CCC[C@H]1NC(=O)c1sc2nccc3c2c1NC(=O)N3c1cnc(CC(C)C)cc1C (atropisomer, axis not shown) [compound of Formula (III), N-((1R,2S)-2-Acrylamidocyclopentyl)-5-(S)-(6-isobutyl-4-methylpyridin-3-yl)-4-oxo-4,5-dihydro-3H-1-thia-3,5,8-triazaacenaphthylene-2-carboxamide]",ARCmax,[1],1.04
same,Cmin,[1],0.552 ng/mL
same,ARCmax,[2],0.968
same,Cmin,[2],1.51 ng/mL
same,"mean Cmax/Dose lower, capsule vs oral solution",105 mg capsule vs 100 mg solution,approximately 64%
same,Ae% dose,"200 mg QD oral solution, fed, Day 1",0.234
same,ARCmax,[3],1.21
same,Ae% dose,[3],0.234
same,CLR,[3],0.186 L/h
same,Cmin,[3],4.96 ng/mL
same,Tmax,"both sexes, human, oral, Part 2, day 1, 36-200 mg QD, read-out: median tmax across doses",1.25 to 1.77 h
same,Cmax,"both sexes, human, po, 36 mg, 36 mg QD oral solution, fed, Day 1",193 ng/mL
same,AUC(0-t),"both sexes, human, po, 36 mg, 36 mg QD oral solution, fed, Day 1, read-out: AUC0-24 h",925 ng·h/mL
same,Tmax,"both sexes, human, po, 36 mg, 36 mg QD oral solution, fed, Day 1, read-out: tmax, median (min-max)",1.5 h
same,Cmax,"both sexes, human, po, 36 mg, 36 mg QD oral solution, fed, Day 10",199 ng/mL
same,AUC(0-t),"both sexes, human, po, 36 mg, 36 mg QD oral solution, fed, Day 10, read-out: AUC0-24 h",889 ng·h/mL
same,half-life,"both sexes, human, po, 36 mg, 36 mg QD oral solution, fed, Day 10, read-out: t1/2, dom (converted)",1.5 h
same,half-life,"both sexes, human, po, 36 mg, 36 mg QD oral solution, fed, Day 10, read-out: t1/2, λz (converted)",4.9 h
same,Tmax,"both sexes, human, po, 36 mg, 36 mg QD oral solution, fed, Day 10, read-out: tmax, median (min-max)",2 h
same,Cmax,"both sexes, human, po, 100 mg, 100 mg QD oral solution, fed, Day 1",464 ng/mL
same,AUC(0-t),"both sexes, human, po, 100 mg, 100 mg QD oral solution, fed, Day 1, read-out: AUC0-24 h",1820 ng·h/mL
same,Tmax,"both sexes, human, po, 100 mg, 100 mg QD oral solution, fed, Day 1, read-out: tmax, median (min-max)",1.25 h
same,Cmax,"both sexes, human, po, 100 mg, 100 mg QD oral solution, fed, Day 10",424 ng/mL
same,AUC(0-t),"both sexes, human, po, 100 mg, 100 mg QD oral solution, fed, Day 10, read-out: AUC0-24 h",1690 ng·h/mL
same,half-life,"both sexes, human, po, 100 mg, 100 mg QD oral solution, fed, Day 10, read-out: t1/2, dom (converted)",1.8 h
same,half-life,"both sexes, human, po, 100 mg, 100 mg QD oral solution, fed, Day 10, read-out: t1/2, λz (converted)",9.6 h
same,Tmax,"both sexes, human, po, 100 mg, 100 mg QD oral solution, fed, Day 10, read-out: tmax, median (min-max)",1.53 h
same,Cmax,"both sexes, human, po, 200 mg, 200 mg QD oral solution, fed, Day 1",719 ng/mL
same,AUC(0-t),"both sexes, human, po, 200 mg, 200 mg QD oral solution, fed, Day 1, read-out: AUC0-24 h",2560 ng·h/mL
same,Tmax,"both sexes, human, po, 200 mg, 200 mg QD oral solution, fed, Day 1, read-out: tmax, median (min-max)",1.77 h
same,Cmax,"both sexes, human, po, 200 mg, 200 mg QD oral solution, fed, Day 10",839 ng/mL
same,AUC(0-t),"both sexes, human, po, 200 mg, 200 mg QD oral solution, fed, Day 10, read-out: AUC0-24 h",3160 ng·h/mL
same,half-life,"both sexes, human, po, 200 mg, 200 mg QD oral solution, fed, Day 10, read-out: t1/2, dom (converted)",1.9 h
same,half-life,"both sexes, human, po, 200 mg, 200 mg QD oral solution, fed, Day 10, read-out: t1/2, λz (converted)",23.1 h
same,Tmax,"both sexes, human, po, 200 mg, 200 mg QD oral solution, fed, Day 10, read-out: tmax, median (min-max)",2 h
same,CL renal,"both sexes, human, urine and plasma, 200 mg QD oral solution, fed, Day 1",3.1 mL/min
same,AUC(0-inf),[4],22.7 ng·h/mL
same,Cmax,[4],233 ng/mL
same,AUC(0-t),"female, human, po, 36 mg, single 36 mg oral solution, female fasted, read-out: AUC0-24 h",819 ng·h/mL
same,AUC(0-t),"female, human, po, 36 mg, single 36 mg oral solution, female fasted, read-out: AUClast",816 ng·h/mL
same,half-life,"female, human, po, 36 mg, single 36 mg oral solution, female fasted, read-out: t1/2, dom (converted)",1.6 h
same,half-life,"female, human, po, 36 mg, single 36 mg oral solution, female fasted, read-out: t1/2, λz (converted)",1.9 h
same,Tmax,"female, human, po, 36 mg, single 36 mg oral solution, female fasted, read-out: tmax, median (min-max)",1 h
same,AUC(0-inf),[5],1340 ng·h/mL
same,Cmax,[5],650 ng/mL
same,AUC(0-t),"female, human, po, 100 mg, single 100 mg oral solution, female fasted, read-out: AUC0-24 h",1420 ng·h/mL
same,AUC(0-t),"female, human, po, 100 mg, single 100 mg oral solution, female fasted, read-out: AUClast",1460 ng·h/mL
same,half-life,"female, human, po, 100 mg, single 100 mg oral solution, female fasted, read-out: t1/2, dom (converted)",1.6 h
same,half-life,"female, human, po, 100 mg, single 100 mg oral solution, female fasted, read-out: t1/2, λz (converted)",11.6 h
same,Tmax,"female, human, po, 100 mg, single 100 mg oral solution, female fasted, read-out: tmax, median (min-max)",0.5 h
same,AUC(0-inf),[6],155 ng·h/mL
same,Cmax,[6],43.5 ng/mL
same,AUC(0-t),"male, human, po, 4 mg, single 4 mg oral solution, male fasted, read-out: AUC0-24 h",157 ng·h/mL
same,AUC(0-t),"male, human, po, 4 mg, single 4 mg oral solution, male fasted, read-out: AUClast",154 ng·h/mL
same,half-life,"male, human, po, 4 mg, single 4 mg oral solution, male fasted, read-out: t1/2, dom (converted)",1.6 h
same,half-life,"male, human, po, 4 mg, single 4 mg oral solution, male fasted, read-out: t1/2, λz (converted)",1.6 h
same,Tmax,"male, human, po, 4 mg, single 4 mg oral solution, male fasted, read-out: tmax, median (min-max)",1 h
same,AUC(0-inf),[7],317 ng·h/mL
same,Cmax,[7],88 ng/mL
same,AUC(0-t),"male, human, po, 12 mg, single 12 mg oral solution, male fasted, read-out: AUC0-24 h",319 ng·h/mL
same,AUC(0-t),"male, human, po, 12 mg, single 12 mg oral solution, male fasted, read-out: AUClast",316 ng·h/mL
same,half-life,"male, human, po, 12 mg, single 12 mg oral solution, male fasted, read-out: t1/2, dom (converted)",1.5 h
